Measured values reported in PMC7756782, “Rational Design of Azastatin as a Potential ADC Payload with Reduced Bystander Killing” (Chemmedchem, 2020).
Where a name gives a salt, the structure may show the parent alone. Non-standard residues stand in square brackets, D forms with d. Residues, ends and D or L forms follow the SMILES beside them. Dolaproine = CO[C@@H]([C@@H]1CCCN1)[C@@H](C)C(=O)O; Dil = CC[C@H](C)[C@H](NC)[C@@H](CC(=O)O)OC; NMeV = CN[C@H](C(=O)O)C(C)C

How the values were obtained:
[1] = test system: HepG2, HCT116 and RPMI 8226 cells; assay: FMCA cytotoxicity, span over all three tested cell lines; format: cell-based; details: 72 h; for IC50: lowest to highest mean IC50 in HepG2, HCT116, RPMI 8226, read-out: IC50 range over the three cell lines
Procedure: (§1) Three fundamentally different cell lines were chosen for the assessment of cytotoxicity: HepG2 cells, which derive from a human hepatoblastoma; ^[43] HCT116 cells, a common model for the study of metastatic colorectal carcinoma;[ ^44 , ^45 ] and RPMI 8226 cells, which originate from multiple myeloma. ^[46]
(§2) The cells, upon overnight cultivation, were treated with MMAE (5), MMAF (6), azastatin‐OMe (7), N‐ethyl azastatin‐OMe (28), N‐Cbz azastatin‐OMe (27) or doxorubicin[ ^47 , ^48 ] at concentrations ranging from 100 μM to 10 pM and after 72 hours of incubation, the survival index relative to control was determined by The Fluorometric Microculture Cytotoxicity Assay (FMCA). ^[49] Based upon the concentration dependent proportion of surviving cells, the half maximal inhibitory concentration (IC50) of each compound was calculated (see Table 1).
(§3) MMAE and MMAF were purchased from Combi‐Blocks (US). Doxorubicin hydrochloride was obtained from Sigma‐Aldrich/Merck (Germany). HepG2 cells (human hepatocellular carcinoma cells, ATCC), were grown in Eagle's Minimum Essential Medium (ATCC). RPMI 8226 (multiple myeloma cells, ATCC) were grown in complete RPMI medium (ATCC). HCT116 cells (colon carcinoma cells, Anticancer Inc.) were cultured in McCoy′s 5 A Modified Medium (Sigma‐Aldrich). All media were supplemented with 10 % foetal bovine serum, penicillin/streptomycin (100 U/100 μg/mL) and 2 mM L‐glutamine. Cells were seeded in 384‐well assay plates at a density of 1000 cells/well. The cells were incubated over night at 37 °C and test compounds were added, followed incubation for an additional 72 h at 37 °C. The fraction of surviving cells was analysed by a fluorometric microculture cytotoxicity assay, based on hydrolysis of fluorescein diacetate to fluorescein by cells with intact plasma membranes, as recently described. ^[49] IC50‐values were calculated from three independent experiments (see SI, mean±SEM). All tested concentrations were assessed in multiple wells (n=2‐4) in each experiment. The IC50‐values were determined with nonlinear regression analysis using GraphPad Prism 8 Software Package (US).

HepG2 cells = assay: cells; format: cell-based, human; details: FMCA, 72 h incubation, 37 °C, 384-well, 1000 cells/well, mean and 95 % confidence interval, three independent experiments
Procedure: as §1, §2, §3

RPMI 8226 cells = assay: cells; format: cell-based; details: FMCA, 72 h incubation, 37 °C, 384-well, 1000 cells/well, mean and 95 % confidence interval, three independent experiments
Procedure: as §1, §2, §3

HCT116 cells = assay: cells; format: cell-based; details: FMCA, 72 h incubation, 37 °C, 384-well, 1000 cells/well, mean and 95 % confidence interval, three independent experiments
Procedure: as §1, §2, §3

Q: How did the IC50 [1] turn out when `CC[C@H](C)[C@@H]([C@@H](CC(=O)N1C[C@@H](N)C[C@H]1[C@H](OC)[C@@H](C)C(=O)N[C@@H](Cc1ccccc1)C(=O)OC)OC)N(C)C(=O)[C@@H](NC(=O)[C@H](C(C)C)N(C)C)C(C)C` [Aza‐OMe, 7, Azastatin methyl ester] was run?
A: 9.8 to 170 nM

Q: What about the IC50 (HepG2 cells) of the same molecule?
A: 20 nM

Q: What about the IC50 (RPMI 8226 cells) of the same molecule?
A: 9.8 nM

Q: And the IC50 (HCT116 cells)?
A: 170 nM

Q: Which results are given for `CC[C@H](C)[C@@H]([C@@H](CC(=O)N1C[C@@H](NC(=O)OCc2ccccc2)C[C@H]1[C@H](OC)[C@@H](C)C(=O)N[C@@H](Cc1ccccc1)C(=O)OC)OC)N(C)C(=O)[C@@H](NC(=O)[C@H](C(C)C)N(C)C)C(C)C` [Cbz‐Aza‐OMe, 27, Cbz‐azastatin methyl ester]?
A: IC50 [1]: 0.13 to 3 nM; IC50 (HepG2 cells): 0.13 nM; IC50 (RPMI 8226 cells): 0.15 nM; IC50 (HCT116 cells): 3 nM

Q: Which IC50 (HepG2 cells; Homo sapiens, HepG2) does the source give for `COc1cccc2c1C(=O)c1c(O)c3c(c(O)c1C2=O)C[C@@](O)(C(=O)CO)C[C@@H]3O[C@H]1C[C@H](N)[C@H](O)[C@H](C)O1` [Doxorubicin, Doxorubicin hydrochloride, reference compound] here?
A: 400 nM

Q: What about the IC50 (RPMI 8226 cells; Homo sapiens, RPMI-8226) of the same molecule?
A: 49 nM

Q: And the IC50 (HCT116 cells; Homo sapiens, HCT-116)?
A: 440 nM

Q: `CC[C@H](C)[C@@H]([C@@H](CC(=O)N1CCC[C@H]1[C@H](OC)[C@@H](C)C(=O)N[C@@H](Cc1ccccc1)C(=O)O)OC)N(C)C(=O)[C@@H](NC(=O)[C@@H](NC)C(C)C)C(C)C` [MMAF, 6, monomethylauristatin F, reference compound] (H-[NMeV]V[Dil][Dolaproine]F-OH) was tested. Which “fold less potent than MMAE (5) in each of the cell lines” value ([1]; ratio of IC50 values) did it give?
A: more than 100 fold

Q: `CCN[C@H]1C[C@@H]([C@H](OC)[C@@H](C)C(=O)N[C@@H](Cc2ccccc2)C(=O)OC)N(C(=O)C[C@@H](OC)[C@H]([C@@H](C)CC)N(C)C(=O)[C@@H](NC(=O)[C@H](C(C)C)N(C)C)C(C)C)C1` [N‐Et Aza‐OMe, 28, N‐ethyl azastatin methyl ester] was tested. Which IC50 [1] did it give?
A: 4.8 to 100 nM

Q: And the IC50 (HepG2 cells)?
A: 11 nM

Q: And the IC50 (RPMI 8226 cells)?
A: 4.8 nM

Q: What about the IC50 (HCT116 cells) of the same molecule?
A: 100 nM
